Patent US9433621B2, “Substituted pyridine and pyrimidine derivatives and their use in treating viral infections” (Merck Sharp & Dohme Corp., priority 2010, dated 2016)

test system: HCV replicon; test: Cell-Based HCV Replicon Assay; settings: Hepatitis C virus, 72 h; Table IV; replicon cells, day 3, real time PCR; EC90 = concentration for ΔCT=3.2 over baseline; read-out: EC90
Description: Cell-Based HCV Replicon Assay
To measure cell-based anti-HCV activity of the compounds of the present invention, replicon cells were seeded at 5000 cells/well in 96-well collagen I-coated Nunc plates in the presence of the compound of the invention. Various concentrations of a compound of the invention, typically in 10 serial 2-fold dilutions, were added to the assay mixture, the starting concentration of the compound ranging from 25 μM to 1 μM. The final concentration of DMSO was 0.5%, fetal bovine serum was 10%, in the assay media. Cells were harvested on day 3 by the addition of 1× cell lysis buffer (Ambion cat #8721). The replicon RNA level was measured using real time PCR (Taqman assay). The amplicon was located in 5B. The PCR primers were: 5B.2F, ATGGACAGGCGCCCTGA; 5B.2R, […]; the probe sequence was FAM-labeled CACGCCATGCGCTGCGG. GAPDH RNA was used as endogenous control and was amplified in the same reaction as NS5B (multiplex PCR) using primers and VIC-labeled probe recommended by the manufacturer (PE Applied Biosystem). The real-time RT-PCR reactions were run on ABI PRISM® 7900HT Sequence Detection System using the following program: 48′C for 30 min, 95′C for 10 min, 40 cycles of 95′C for 15 sec, 60′C for 1 min. The ΔCT values (CT5B-CTGAPDH) were plotted against the concentration of test compound and fitted to the sigmoid dose-response model using Graph Pad PRISM® software. EC50 was defined as the concentration of inhibitor necessary to achieve ΔCT=1 over the projected baseline; EC90 the concentration necessary to achieve ΔCT=3.2 over the baseline. Alternatively, to quantitate the absolute amount of replicon RNA, a standard curve was established by including serially diluted T7 transcripts of replicon RNA in the Taqman assay. All Taqman reagents were from PE Applied Biosystems. Such an assay procedure was described in detail in e.g. Malcolm et al., Antimicrobial Agents and Chemotherapy 50: 1013-1020 (2006).
HCV Replicon assay data for compounds of the invention that were tested were obtained using the above method.

| Structure (SMILES) | EC90 [µM] |
| --- | --- |
| Cc1nc(NCC2CC2)nc(N[C@@H]2C[C@H](CC(C)(C)O)[C@@H](O)[C@H]2O)c1-c1nc2c(C)nccc2s1 [Example 3552] | 0.024 |
| CO[C@H](C)CNc1nc(C)c(-c2nc3c(C)nccc3s2)c(N[C@@H]2C[C@H](C(C)(C)O)[C@@H](O)[C@H]2O)n1 [Example 3030] | 0.104 |
| Cc1nc(N[C@H](C)c2ccc(OC(F)(F)F)cc2)nc(N[C@@H]2C[C@H](CO)[C@@H](O)[C@H]2O)c1-c1nc2c(N)nccc2s1 [Example 4413] | 0.121 |
| CCOCCNc1nc(C)c(-c2nc3c(C4CC4)nccc3s2)c(N[C@@H]2C[C@H](CS(=O)(=O)CC)[C@@H](O)[C@H]2O)n1 [Example 3721] | 0.024 |

same assay, conditions: Hepatitis C virus, 72 h; Table V, cells printed as numeric bound instead of code; replicon cells, day 3, real time PCR; read-out: EC90 (uM) range

| Structure (SMILES) | EC90 [µM] |
| --- | --- |
| C[C@@H](Nc1ncc(-c2nc3c(C4CC4)nccc3s2)c(N[C@@H]2C[C@H](CS(C)(=O)=O)[C@@H](O)[C@H]2O)n1)C1CC1 [Example 4917] | > 0.2 |

same assay, conditions: Hepatitis C virus, 72 h; Table V, class codes; replicon cells, day 3, real time PCR; EC90 = concentration for ΔCT=3.2 over baseline; read-out: EC90 (uM) range

| Structure (SMILES) | EC90 [µM] |
| --- | --- |
| COCCNc1nc(C)c(-c2nc3c(C4CC4)nccc3s2)c(N[C@@H]2C[C@H](C(=O)Nc3nccs3)[C@@H](O)[C@H]2O)n1 [Example 4926] | < 0.5 |
| Cc1nc(NCc2ccccc2F)nc(N[C@@H]2C[C@H](CO)[C@@H](O)[C@H]2O)c1-c1nc2c(C3CC3)nccc2s1 [Example 4901] | < 0.5 |
| CO[C@@H]1[C@@H](CO)C[C@@H](Nc2nc(NCC3CC3)nc(C)c2-c2nc3c(C)nccc3s2)[C@@H]1O [Example 4903] | < 0.5 |
| Cc1nc(N[C@H](C)c2ccc(OC(F)(F)F)cc2)nc(N[C@@H]2C[C@H](C(=O)Nc3nccs3)[C@@H](O)[C@H]2O)c1-c1nc2c(C3CC3)nccc2s1 [Example 4928] | < 0.5 |
| Cc1nccc2sc(-c3cnc(NCC4CC4)nc3N[C@@H]3C[C@H](C(C)(C)O)[C@@H](O)[C@H]3O)nc12 [Example 4935] | < 0.5 |

same assay, conditions: Hepatitis C virus; HCV Replicon assay, EC90 given as numeric bound, Table VI; read-out: EC90

| Structure (SMILES) | EC90 [µM] |
| --- | --- |
| Cc1nc(N[C@H](C)c2c(F)c(F)c(C)c(F)c2F)nc(NC2(CO)CCCC2)c1-c1nc2c(C3CC3)nccc2s1 [Example 5128] | > 1 |
| CO[C@H](C)CN(C)c1nc(C)c(-c2nc3c(C)nccc3s2)c(N[C@@H]2C[C@H](C(C)(C)O)[C@@H](O)[C@H]2O)n1 [Example 5171] | > 1 |

same assay, conditions: Hepatitis C virus; HCV Replicon assay, EC90 range, Table VI; read-out: EC90

| Structure (SMILES) | EC90 [µM] |
| --- | --- |
| CO[C@H]1CCC[C@@H]1Nc1nc(C)c(-c2nc3c(C)nccc3s2)c(N[C@@H]2C[C@H](CO)[C@@H](O)[C@H]2O)n1 [Example 5146] | < 0.5 |
| CCO[C@H]1C[C@H](CNc2nc(C)c(-c3nc4c(C)nccc4s3)c(N[C@@H]3C[C@H](C4(O)CCCC4)[C@@H](O)[C@H]3O)n2)C1 [Example 5112] | < 0.5 |
| Cc1nc(NC2(C(C)C)CC2)nc(N[C@@H]2C[C@H](C(C)(C)O)[C@@H](O)[C@H]2O)c1-c1nc2c(C)nccc2s1 [Example 5030] | 0.5 to 5 |
| Cc1nc(NCCC(C)(C)C)nc(N[C@@H]2C[C@H](C(C)(C)O)[C@@H](O)[C@H]2O)c1-c1nc2c(C)nccc2s1 [Example 5262] | < 0.5 |
| Cc1nc(N[C@H](C)C2CC2)nc(N[C@@H]2C[C@H](COc3c(F)cccc3F)[C@@H](O)[C@H]2O)c1-c1nc2c(C)nccc2s1 [Example 5207] | < 0.5 |
| Cc1nc(NCCSC(C)(C)C)nc(N[C@@H]2C[C@H](C3(O)CC3)[C@@H](O)[C@H]2O)c1-c1nc2c(C)nccc2s1 [Example 5237] | < 0.5 |
| CCO[C@@H](CNc1nc(C)c(-c2nc3c(C)nccc3s2)c(N[C@@H]2C[C@H](CO)[C@@H](O)[C@H]2O)n1)C(F)(F)F [Example 5233] | < 0.5 |
| Cc1nc(NCC2CC2)nc(N[C@@H]2C[C@H](NC(=O)NC3CCCC3)[C@@H](O)[C@H]2O)c1-c1nc2c(C3CC3)nccc2s1 [Example 5093] | < 0.5 |
| Cc1nc(NCCSc2ccccc2)nc(N[C@@H]2C[C@H](C(C)(C)O)[C@@H](O)[C@H]2O)c1-c1nc2c(C)nccc2s1 [Example 5280] | < 0.5 |
| COC[C@@H](C)Nc1nc(C)c(-c2nc3c(C)nccc3s2)c(N[C@@H]2C[C@H](C(C)(C)NC(=O)OC)[C@@H](O)[C@H]2O)n1 [Example 5040] | < 0.5 |
| CO[C@@H]1CCCC[C@H]1Nc1nc(C)c(-c2nc3c(C)nccc3s2)c(N[C@@H]2C[C@H](CO)[C@@H](O)[C@H]2O)n1 [Example 5139] | < 0.5 |
| Cc1nc(NCC2(O)CCCC2)nc(N[C@H]2CC[C@@H](CO)C2)c1-c1nc2c(C)nccc2s1 [Example 5159] | < 0.5 |
| Cc1nc(N[C@H]2CCC[C@@H]2O)nc(N[C@@H]2C[C@H](CO)[C@@H](O)[C@H]2O)c1-c1nc2c(C)nccc2s1 [Example 5150] | < 0.5 |
| CCC(O)(CC)[C@H]1C[C@@H](Nc2nc(NCCSC(C)(C)C)nc(C)c2-c2nc3c(C)nccc3s2)[C@H](O)[C@@H]1O [Example 5248] | < 0.5 |
| Cc1nc(NCc2c(F)cccc2F)nc(N[C@@H]2C[C@H](CS(=O)(=O)c3cc(F)cc(F)c3)[C@@H](O)[C@H]2O)c1-c1nc2c(N)nccc2s1 [Example 5209] | < 0.5 |
| Cc1nc(NC2(CC(C)C)CC2)nc(N[C@@H]2C[C@H](C(C)(C)O)[C@@H](O)[C@H]2O)c1-c1nc2c(C)nccc2s1 [Example 5031] | 0.5 to 5 |
| COCCC1(CNc2nc(C)c(-c3nc4c(C)nccc4s3)c(N[C@@H]3C[C@H](C(C)(C)O)[C@@H](O)[C@H]3O)n2)CCOCC1 [Example 5287] | < 0.5 |
| Cc1nc(NCc2c(F)cccc2F)nc(N[C@@H]2C[C@H](NC(=O)NC(C)C)[C@@H](O)[C@H]2O)c1-c1nc2c(C3CC3)nccc2s1 [Example 5083] | < 0.5 |

| Structure (SMILES) | EC90 [µM] |
| --- | --- |
| Cc1cc(S(=O)(=O)C[C@H]2C[C@@H](Nc3nc(NCC(C)(C)C)nc(C)c3-c3nc4c(C)nccc4s3)[C@H](O)[C@@H]2O)ccc1F [Example 5010] | < 0.5 |
| COCC(O)(COC)[C@H]1C[C@@H](Nc2nc(NC[C@@H](C)OC)nc(C)c2-c2nc3c(C)nccc3s2)[C@H](O)[C@@H]1O [Example 5245] | < 0.5 |
| COC[C@@H](C)Nc1nc(C)c(-c2nc3c(C)nccc3s2)c(N[C@@H]2C[C@H](C(O)(COC)COC)[C@@H](O)[C@H]2O)n1 [Example 5244] | < 0.5 |
| Cc1nc(N)nc(N[C@@H]2C[C@H]([C@@H](O)C(C)C)[C@@H](O)[C@H]2O)c1-c1nc2c(C)nccc2s1 [Example 5125] | < 0.5 |
| COCCNc1nc(C)c(-c2nc3c(C4CC4)nccc3s2)c(NC2(CO)CCCC2)n1 [Example 5126] | < 0.5 |
| Cc1nc(N[C@H](C)C2CC2)nc(N[C@@H]2C[C@H](NC(=O)NCc3ccc(F)cc3)[C@@H](O)[C@H]2O)c1-c1nc2c(C3CC3)nccc2s1 [Example 5023] | < 0.5 |
| Cc1ccc(S(=O)(=O)C[C@H]2C[C@@H](Nc3nc(NCCSC(C)(C)C)nc(C)c3-c3nc4c(C)nccc4s3)[C@H](O)[C@@H]2O)cc1F [Example 5001] | < 0.5 |
| CCO[C@H]1C[C@@H](CNc2nc(C)c(-c3nc4c(C5CC5)nccc4s3)c(N[C@@H]3C[C@H](CO)[C@@H](O)[C@H]3O)n2)C1 [Example 5293] | < 0.5 |
| CO[C@@H](CNc1nc(C)c(-c2nc3c(C)nccc3s2)c(N[C@@H]2C[C@H](C(C)(C)O)[C@@H](O)[C@H]2O)n1)c1ccccc1 [Example 5135] | < 0.5 |
| COCCNc1nc(C)c(-c2nc3c(C)nccc3s2)c(N[C@@H]2C[C@H](CS(=O)(=O)c3ccc(F)c(C)c3)[C@@H](O)[C@H]2O)n1 [Example 5011] | < 0.5 |
| Cc1nc(NCC2(O)CCOC2)nc(N[C@@H]2C[C@H](C3(O)CCCC3)[C@@H](O)[C@H]2O)c1-c1nc2c(C)nccc2s1 (stereo partly drawn) [Example 5115] | < 0.5 |
| Cc1nc(NCCSC(C)(C)C)nc(N[C@@H]2C[C@H](CC(C)(C)O)[C@@H](O)[C@H]2O)c1-c1nc2c(C)nccc2s1 [Example 5309] | < 0.5 |
| CCNC(=O)N[C@H]1C[C@@H](Nc2nc(N[C@H](C)C3CC3)nc(C)c2-c2nc3c(C4CC4)nccc3s2)[C@H](O)[C@@H]1O [Example 5022] | < 0.5 |
| CO[C@@H]1CCCC[C@H]1Nc1nc(C)c(-c2nc3c(C)nccc3s2)c(N[C@@H]2C[C@H](C(C)(C)O)[C@@H](O)[C@H]2O)n1 [Example 5140] | < 0.5 |
| CO[C@H](C)CNc1nc(C)c(-c2nc3c(C)nccc3s2)c(N[C@@H]2C[C@H](C3(O)CC3)[C@@H](O)[C@H]2O)n1 [Example 5238] | < 0.5 |
| Cc1nc(NC(C)C2CC(F)(F)C2)nc(N[C@@H]2C[C@H](CO)C(O)[C@H]2O)c1-c1nc2c(C3CC3)nccc2s1 (stereo partly drawn) [Example 5300] | < 0.5 |
| Cc1nc(NCC2(O)CCCC2)nc(N[C@@H]2C[C@H](CS(=O)(=O)c3cc(F)cc(F)c3)[C@@H](O)[C@H]2O)c1-c1nc2c(C)nccc2s1 [Example 5119] | < 0.5 |
| CSCCNc1nc(C)c(-c2nc3c(C)nccc3s2)c(N[C@@H]2C[C@H](C(C)(C)O)[C@@H](O)[C@H]2O)n1 [Example 5241] | < 0.5 |
